Data on twelve compounds can be found in patent US11866416B2, “Streptococcus mutans glucosyl transferase inhibitors for dental caries therapy” (UAB Research Foundation, priority 2018, dated 2024).

Data set [1] concerns S. mutans biofilm. The data set is described as follows: S. mutans biofilm formation and inhibition assay (96-well plates, crystal violet). The data set is classed as cell-based, Streptococcus mutans. To be noted: for IC50: Streptococcus mutans.
The test system of data set [2] is S. mutans Gtfs. Nature of the data set: Gtf zymographic assay with SDS-PAGE. The data set is classed as biochemical, Streptococcus mutans. To be noted: for % Inhibition of GTFs at 10 μM: S. mutans GTF zymogram assay, NI = no inhibition up to 10 μM; for Gtf enzyme inhibitory activity, glucan bands in zymogram / production of Gtfs, protein level on SDS-PAGE: 50 μM added to cultures. How it is done:
A well-established zymographic assay was used to determine enzymatic activity of Gtfs (Mattos-Graner et al. (2004) J. Clin. Microbiol. 42, […]). In brief, overnight S. mutans UA159 cultures were diluted 1:100 in fresh 5 mL THB with 50 μL of selective compounds at a series of concentrations. Treated bacteria were grown to OD470 of 1.0, and spun down by centrifugation at 4° C., and culture supernatants were collected and filtered through a 0.22-μm-pore-size filter membrane to remove residual bacterial cells and dialyzed at 4° C. against 0.02 M sodium phosphate buffer (pH 6.8), with 10 μM phenylmethylsulfonyl fluoride (PMSF), followed by a second dialysis against 0.2 mM sodium phosphate containing 10 μM PMSF. After dialysis, 4 mL of samples were concentrated to 40 μL by 100K Amicon Ultra-4 centrifugal filter (Merck Millipore Ltd.). For electrophoresis and zymographic analysis, 10 μL of each concentrated culture supernatant was applied to 8% SDS-PAGE in duplicate. One gel was used for protein staining with Coomassie blue dye, while the other one was subjected to zymographic assay as described (Mattos-Graner et al. (2004) J. Clin. Microbiol. 42, […]). The resultant white opaque glucan bands were visualized against a black background.
Inhibition of the activity of Gtfs determined by zymographic assays. Well established zymographic assay was used to determine enzymatic activity of Gtfs. In brief, overnight S. mutans UA159 cultures were diluted 1:100 in fresh 5 mL THB. Bacteria were grown to OD470 of 1.0, and spun down by centrifugation at 4° C. and culture supernatants were collected and filtered through a 0.22-μm-pore-size filter membrane to remove residual bacterial cells and dialyzed at 4° C. against 0.02 M sodium phosphate buffer (pH 6.8), with 10 μM phenylmethylsulfonyl fluoride (PMSF), followed by a second dialysis against 0.2 mM sodium phosphate containing 10 μM PMSF. After dialysis, 4 mL of samples were concentrated to 40 μL by 100K Amicon Ultra-4 centrifugal filter (Merk Millipore Ltd.). For electrophoresis and zymographic analysis, 10 μL of each concentrated culture supernatant was applied to 8% SDS-PAGE in duplicate. One gel was used for protein staining with Coomassie blue dye, while the other one was subjected to zymographic assay. For zymogram analysis, following electrophoretic separation, gels were washed twice for 15 min each with renaturing buffer containing 2.5% Triton X-100. Gels were then incubated for 18 h at 37° C. with 0.2 M sodium phosphate buffer (pH 6.5) containing 0.2% dextran T70, 5% sucrose, and varying concentrations of the small molecule inhibitors. The reactions were stopped by washing gels with distilled water at 4° C. for 10 min, and digital images of the resultant white opaque glucan bands were visualized against a black background and captured using a digital camera.
Inhibition of the activity of Gtfs determined by zymographic assays. A well-established zymographic assay was used to determine enzymatic activity of Gtfs (Mattos-Graner, R. O., Napimoga, M. H., Fukushima, K., Duncan, M. J., Smith, D. J., J Clin Microbiol, 2004, 42, 4586). In brief, overnight S. mutans UA159 cultures were diluted 1:100 in fresh 5 mL THB with 50 μL of selective compounds at a series of concentrations. Treated bacteria were grown to OD470 of 1.0, and spun down by centrifugation at 4° C., and culture supernatants were collected and filtered through a 0.22-μm-pore-size filter membrane to remove residual bacterial cells and dialyzed at 4° C. against 0.02 M sodium phosphate buffer (pH 6.8), with 10 μM phenylmethylsulfonyl fluoride (PMSF), followed by a second dialysis against 0.2 mM sodium phosphate containing 10 μM PMSF. After dialysis, 4 mL of samples were concentrated to 40 μL by 100K Amicon Ultra-4 centrifugal filter (Merk Millipore Ltd.). For electrophoresis and zymographic analysis, 10 μL of each concentrated culture supernatant was applied to 8% SDS-PAGE in duplicate. […]

The target of data set [3] is GtfB catalytic domain (Streptococcus mutans serotype c (strain ATCC 700610 / UA159), UniProt P08987). The data set is described as follows: OctetRed96 binding kinetics, GtfB. To be noted: 1:1 binding model. The text has this:
To determine if the inhibition is attributed by the binding of the lead compound to the enzymes, the OctetRed96 system was used to characterize protein-small molecule binding kinetics. The his-tagged catalytic domains of GtfB and GtC were immobilized separately onto an anti-penta-HIS (HIS1K) biosensor which consists of high affinity, high specificity penta-his antibody pre-immobilized on a fiber optic biosensor. This sensor was then exposed to varying concentrations of #G43.
Expression and purification of GtfB and GtfC catalytic domains. The DNA fragment coding for either GtfB catalytic (residues 268 aa-1074 aa) or GtfC-catalytic (residues 295 aa-1103 aa) was PCR amplified with primer sets of GtfB-BamH1-F and GtfB-Xho1-R, GtfC-BamH1-F and GtfC-Xhol1-R respectively using S. mutans genomic DNA as a template. Each amplified fragment was cloned into pET-sumo vector respectively and transformed in Escherichia coli BL21(DE3). The recombinant strain grown to OD600=0.8 in LB medium was induced with 0.1 mM IPTG at 18° C. overnight. Cell lysates prepared form the overnight grown E. coli cells were subjected to protein purification using HiTrap™ Column (Ni^2+ affinity) followed by gel filtration experiments as described (Zhu, F. et al. Structural and functional analysis of a new subfamily of glycosyltransferases required for glycosylation of serine-rich streptococcal adhesins. The Journal of biological chemistry 286, 27048-27057, doi:10.1074/jbc.M110.208629 (2011); Zhang, H. et al. The highly conserved domain of unknown function 1792 has a distinct glycosyltransferase fold. Nature communications 5, 4339, doi:10.1038/ncomms5339 (2014)).
Octet Red analysis. Octet full kinetic binding analysis was performed for binding of #G43 to GtfB and GtfC. The rate constant, KD, was determined using the Octet® Red96 system (ForteBio, Menlo Park, Calif.). Phosphate buffer with 3.5% (w/v) DMSO was used. The proteins were captured on dip-and-read Anti-Penta-HIS (HIS1K) Biosensor. These consist of high affinity, high specificity Penta-His antibody from Qiagen pre-immobilized on a fiber optic biosensor. The binding of #G43 at 3-fold serial dilutions in phosphate buffer from 200, 66.6, 22.2, 7.4, 2.5 to 0 μM was assessed. The ForteBio Octet analysis software (ForteBio, Menlo Park, Calif.) was used to generate the sensorgram and the accuracy of the analysis.
OctetRed analysis. […] GtfC and GtfB were purified. The Octet® Red96 system (ForteBio, Menlo Park, Calif.) was used to determine the rate constant, KD. […] Sensorgrams and the accuracy of the analysis was calculated using the ForteBio OctetRed analysis software (ForteBio, Menlo Park, Calif.).

Data set [4] deals with S. mutans. The data set is described as follows: microbe, parasite or virus in culture. The data set is classed as cell-based, Streptococcus mutans. To be noted: for MIC50 / IC50: Streptococcus mutans; for MIC50: read-out: Growth Inhibition MIC50; for IC50: Table 7, synthesized analogs of compound 9, read-out: Growth IC50; for SI (selectivity index): Table 7, growth IC50 value divided by biofilm IC50 value. Summed up:
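Mid-exponential cultures (OD470 0.6) in THB were exposed to compound concentrations for 16 h, with growth read at OD470 and normalised to 1% DMSO control (100%). CFU/mL were also counted after 24 h at 37 °C and compared with the DMSO control.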

The subject of data set [5] is S. mutans colonization. Nature of the data set: Sucrose-dependent Drosophila colonization model. The data set is classed as in vivo. To be noted: chalcones; 100 μM or 50 μM.
Method: Briefly, Gfp tagged S. mutans bacteria were infected into flies along with the treatment appropriate compound at 100 μM in a feeding-assay.
Mid-log phase THB cultures of Gfp-tagged (green fluorescent protein) S. mutans UA159 were spun down and resuspended in a solution containing 5% sucrose and 50 μM of the compound. 100 μL of resuspended cells were spotted onto a sterile filter that was placed on the surface of 5 mL of solidified 5% sucrose agar in a plastic vial. The vials were allowed to dry at room temperature for 30 minutes prior to addition of flies. Male Canton S flies (1-3 days old) were treated with antibiotics for 2 days and starved for 3 hours prior to the addition to vials supplied with S. mutans (10 flies per vial). The colonization of flies by Gfp-tagged strains were analyzed by Nikon elipse 90i microscope, equipped with an Epi-fluorescence and NIS elements AR imaging system.
The intensity of the fluorescence was measured in the guts of the flies fed with the Gfp tagged bacteria after 7 days of infection.
Cultures of Gfp-tagged (green fluorescent protein) S. mutans UA159 grown to middle log phase were spun down and re-suspended in a solution containing 5% sucrose and 50 μM of each compound. 100 μL of re-suspended cells were aliquoted onto a sterile filter that was placed on the surface of 5 mL of solidified 5% sucrose agar in a plastic vial. Upon the drying of the vials at room temperature for 30 min, the flies were introduced to the vessels. Male Canton S flies (1-3 days old) were treated with antibiotics for 2 days and starved for 3 h before the addition to vials supplied with S. mutans (10-14 flies per vial). Nikon elipse 90i microscope, equipped with an Epi-fluorescence and NIS elements AR imaging system was used to analyze the colonization of flies by Gfp-tagged strains.
Setting [6] is: Table 1, >500 = no inhibition up to 500 μM, read-out: Biofilm Inhibition IC50.
Setting [7] is: Table 2, read-out: Biofilm Inhibition IC50.
[8] abbreviates: Table 5, >500 = no inhibition up to 500 μM, read-out: Biofilm Inhibition IC50.
The mark [9] stands for this setting: Table 2, >300 = no inhibition up to 300 μM.
Where [10] appears, read: Table 7, synthesized analogs of compound 9, read-out: Biofilm IC50.

Where two headings read alike, the source gives them in different places. Marks after values point to notes of the source that are not given here.

GtfB catalytic domain, sequence (P08987 268-1074 limits assumed): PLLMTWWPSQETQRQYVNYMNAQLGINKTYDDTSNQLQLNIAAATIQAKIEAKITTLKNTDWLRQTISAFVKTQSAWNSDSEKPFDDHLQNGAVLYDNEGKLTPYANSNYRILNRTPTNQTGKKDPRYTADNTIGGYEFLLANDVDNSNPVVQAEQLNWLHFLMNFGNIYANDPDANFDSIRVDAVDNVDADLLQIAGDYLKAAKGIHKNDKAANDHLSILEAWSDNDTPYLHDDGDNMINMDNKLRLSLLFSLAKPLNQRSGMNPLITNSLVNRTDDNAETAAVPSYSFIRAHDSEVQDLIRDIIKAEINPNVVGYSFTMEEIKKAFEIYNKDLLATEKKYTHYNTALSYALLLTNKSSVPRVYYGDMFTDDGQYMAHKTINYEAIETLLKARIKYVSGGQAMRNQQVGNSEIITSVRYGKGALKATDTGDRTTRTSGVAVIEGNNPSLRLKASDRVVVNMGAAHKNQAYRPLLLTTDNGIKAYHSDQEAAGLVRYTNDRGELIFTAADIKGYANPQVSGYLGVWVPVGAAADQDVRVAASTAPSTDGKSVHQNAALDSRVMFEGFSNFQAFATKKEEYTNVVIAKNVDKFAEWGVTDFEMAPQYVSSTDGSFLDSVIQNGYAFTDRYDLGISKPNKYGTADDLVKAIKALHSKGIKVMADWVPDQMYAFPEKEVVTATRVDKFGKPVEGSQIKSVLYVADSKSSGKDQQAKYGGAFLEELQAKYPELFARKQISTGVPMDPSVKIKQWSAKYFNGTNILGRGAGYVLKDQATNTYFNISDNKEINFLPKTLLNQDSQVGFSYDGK

What is called Kd is the constant that tells how readily two partners part at equilibrium. Higher therefore signals lower affinity. Consider `O=C(Nc1ccccc1)c1cc2cc([N+](=O)[O-])ccc2s1` [#G43-D], for which the “inhibition of S. mutans biofilms, biofilm assay and fluorescence microscopy” value in data set [1] (concentrations up to 200 μM) is “did not inhibit”. In addition, the “glucan bands in zymographic assay” value in data set [2] (50 μM, Gtfs from S. mutans UA159 supernatants) is listed as “significantly reduced the ability to inhibit the glucan production”. In addition, in data set [3], the affinity, expressed as Kd, was 68 µM.
Broadly, the IC50 is the concentration at which inhibition is half-maximal. Turning to `NC(=O)c1ccccc1NC(=O)c1cc2cc([N+](=O)[O-])ccc2s1` [Compound 3A], the IC50 in data set [1] (setting [6]), in data set [1] (setting [7]) and in data set [1] (setting [8]) was 16.7 µM each time. Besides, the MIC50 in data set [4] (setting [9]) was greater than 300 µM. Moreover, the “% Inhibition of GTFs at 10 μM” value in data set [2] is given as 30.3%.
Regarding `NC(=O)c1ccccc1NC(=O)c1cnc2ccccc2c1` [Compound 3I], the 50% inhibitory concentration (IC50) in data set [1] (setting [6]), in data set [1] (setting [7]) and in data set [1] (setting [8]) was 15.3 µM each time. In data set [4] (setting [9]), the MIC50 is greater than 300 µM. Also, the “% Inhibition of GTFs at 10 μM” value in data set [2] is 36.6%.
With `NC(=O)c1ccccc1NC(=O)c1cc2cc(N)ccc2s1` [Compound 3M], the IC50 in data set [1] (setting [6]) and in data set [1] (setting [8]) was 10.2 µM throughout. Further, the “Growth Inhibition MIC50” value in data set [4] (setting [9]) is given as >300^b μM. In data set [2], the “% Inhibition of GTFs at 10 μM” value is 42.2%.
With `O=C(Nc1ccccc1C(=O)O)c1cc2cc([N+](=O)[O-])ccc2s1` [Compound 3N], the IC50 in data set [1] (setting [6]), in data set [1] (setting [7]) and in data set [1] (setting [8]) was 89.3 µM throughout. Moreover, the MIC50 in data set [4] (setting [9]) is greater than 300 µM. Besides, the “% Inhibition of GTFs at 10 μM” value in data set [2] was determined as 30.1%.
Regarding `COC(=O)c1ccc(NC(=O)c2cc3cc([N+](=O)[O-])ccc3s2)cc1` [Compound 3O], the IC50 in data set [1] (setting [6]), in data set [1] (setting [7]) and in data set [1] (setting [8]) was 9.6 µM in each case. Moreover, the MIC50 in data set [4] (setting [9]) was greater than 300 µM. Further, the “% Inhibition of GTFs at 10 μM” value in data set [2] came to 54.8%.
In general, melting point refers to the temperature, or range, at which the solid turns liquid. As to `O=C(/C=C/c1ccc(O)cc1O)c1cccc(O)c1` [Compound 9a, (E)-3-(2,4-Dihydroxyphenyl)-1-(3-hydroxyphenyl)-2-propen-1-one], the melting point was in the range of 73 to 75 °C. For the same compound, the IC50 in data set [1] (setting [10]) stood at 68 ± 3 µM. Also, in data set [1] (read-out: S. mutans biofilm IC50), the 50% inhibitory concentration (IC50) amounted to 68 µM. In data set [4], the “selectivity (index / fold) for biofilm over growth” value was “about 10”, the IC50 was 639 ± 25 µM and the “SI (selectivity index)” value is recorded as 9.39. Further, the “Gtf enzyme inhibitory activity, glucan bands in zymogram” value (“Gtf enzyme inhibitory activity” below) in data set [2] is given as “did not exhibit a drastic effect”. In addition, the “fluorescence of Gfp tagged S. mutans in fly guts after 7 days” value in data set [5] was “marked reduction in fluorescence”.
`O=C(/C=C/c1ccc(O)cc1O)c1ccc(O)cc1` [Compound 18b, (E)-3-(2,4-Dihydroxyphenyl)-1-(4-hydroxyphenyl)-2-propen-1-one] returned a melting point of 185 to 188 °C. For the same compound, the IC50 in data set [1] (setting [10]) was determined as 162 ± 21 µM. Also, in data set [4], the IC50 was 1060 ± 118 µM and the “SI (selectivity index)” value is listed as 6.6. Moreover, in data set [2], the “Gtf enzyme inhibitory activity” value is given as “did not exhibit a drastic effect” and the “production of Gtfs, protein level on SDS-PAGE” value (shortened to “production of Gtfs”) is “showed an inhibitory effect on the production of Gtfs”.
Consider `O=C(/C=C/c1cc(O)c(O)cc1O)c1ccccc1O` [Compound 18c, (E/Z)-1-(2-hydroxyphenyl)-3-(2,4,5-trihydroxyphenyl)prop-2-en-1-one], for which, in data set [1] (setting [10]), the IC50 came to 224 ± 23 µM. In data set [4], the “selectivity (index / fold) for biofilm over growth” value worked out at 1.5, the IC50 was determined as 323 ± 36 µM and the “SI (selectivity index)” value came out at 1.5. For the same compound, the “production of Gtfs” value in data set [2] is “largest inhibition”.
For `O=C(/C=C/c1cc(O)c(O)cc1O)c1ccc(O)cc1` [Compound 18d, (E)-1-(4-hydroxyphenyl)-3-(2,4,5-trihydroxyphenyl)prop-2-en-1-one], the IC50 in data set [1] (setting [10]) stood at 76 µM. Moreover, in data set [4], the IC50 stood at 376 ± 6 µM and the “SI (selectivity index)” value is 4.9. For the same compound, the “Gtf enzyme inhibitory activity” value in data set [2] is “some weak inhibition of the GtfC band”.
Compound `O=C(/C=C\c1ccc(O)cc1O)c1ccc(O)cc1` [Compound 21b, (Z)-3-(2,4-Dihydroxyphenyl)-1-(4-hydroxyphenyl)-2-propen-1-one] returned a melting point of 185 to 187 °C. The half-inhibitory concentration (IC50) in data set [1] (setting [10]) was determined as 77 ± 8 µM. Besides, in data set [4], the IC50 stood at 782 ± 96 µM and the “SI (selectivity index)” value is recorded as 10.1. In data set [2], the “Gtf enzyme inhibitory activity” value is listed as “exhibit the best inhibitory effects” and the “production of Gtfs” value was “showed an inhibitory effect on the production of Gtfs”.
Regarding `C(=C\c1ccccc1)/c1ccccc1` [E-stilbene, reference compound], the “glucan production in zymogram assay” value in data set [2] (stilbenes, versus DMSO control) is listed as “no glucan inhibition”.
